Assay results as given in patent US12090172B2, “Suicide gene therapeutic agent for brain tumors using pluripotent stem cell” (KEIO UNIVERSITY, priority 2017, dated 2024).

Legend:
human glioma cells (U87) [1] = test: Suicide gene cell therapy with TSCs (1) expressing yCD-UPRT, mixture transplantation model; type: in vivo; conditions: control group 2: TSC (−)/5FC (+) 5 mg/day, only U87 transplanted
human glioma cells (U87) [2] = test: Suicide gene cell therapy with TSCs (1) expressing yCD-UPRT, transplantation model after tumor formation; type: in vivo; conditions: control group 2: TSC (−)/5FC (+) 5 mg/day, only U87 transplanted
Method: First, 1×10^4 cells/2 μl U87-ffLuc was transplanted to the right striate body (2 mm away from the anterior fontanel to the right and 3 mm deep from the brain surface) of each T cell-deficient mouse (female BALB/c nude mouse, 20 g, 6 w) subjected to general anesthesia, and 1×10^6 cells/2 μl TSCs expressing yCD-UPRT (yCD-UPRT is introduced into NS/PCs with the lentiviral vector) were stereotactically transplanted to the same site 5 days later. The take of tumor cells was confirmed 2 days later with an IVIS, that is, an in vivo imaging system, and 500 μl of 5-FC (10 mg/ml) was then intraperitoneally administered to a treated group once per day for 2 weeks (TSC (+)/5-FC (+) 5 mg/day, n=9). Next, 500 μl of 1 M PBS was administered to a control group 1 for 2 weeks in the same way (control group 1: TSC (+)/5-FC (−), n=9). A group to which only U87-ffLuc was transplanted was also generated as another control group, and 500 μl of 5-FC (10 mg/ml) was intraperitoneally administered to this once per day for 2 weeks (control group 2: TSC (−)/5-FC (+) 5 mg/day, n=3). […]
(§1) The survival analysis was performed while the luminescence imaging analysis (IVIS) of tumors was performed chronologically. […]

human glioma cells (U87) [3] = test: Suicide gene cell therapy with TSCs expressing yCD-UPRT with CRISPR/Cas9, transplantation model after tumor formation; type: in vivo, mouse; conditions: control group 2: TSC (−)/5FC (+), only U87 transplanted
Method: First, 1×10^4 cells/2 μl U87-ffLuc was transplanted to the right striate body (2 mm away from the anterior fontanel to the right and 3 mm deep from the brain surface) of each T cell-deficient mouse (female BALB/c nude mouse, 20 g, 6 w) subjected to general anesthesia, and 1×10^6 cells/2 μl TSCs expressing yCD-UPRT (yCD-UPRT is introduced into iPS cells with CRISPR/Cas9) were stereotactically transplanted to the same site 5 days later. The take of tumor cells was confirmed 2 days later with an IVIS, that is, an in vivo imaging system, and further 2 days later, 500 μl of 5-FC (10 mg/ml) was intraperitoneally administered to a treated group once per day for 2 weeks (TSC (+)/5-FC (+), n=8). Then, 500 μl of 1 M PBS was administered to a control group 1 for 2 weeks in the same way (control group 1: TSC/5-FC (−), n=7). A group to which only U87-ffLuc was transplanted was also generated as another control group, and 500 μl of 5-FC (10 mg/ml) was intraperitoneally administered to this once per day for 2 weeks (control group 2: TSC (−)/5-FC (+), n=3).
A method for evaluating tumors, the analysis of survival curves and the like were all performed in the same way as the above. […]
as §1

human glioma cells (U87) [4] = test: Suicide gene cell therapy with Tet-induced TSCs (3) expressing yCD-UPRT, mixture transplantation model; type: in vivo, mouse; conditions: control group 2: TSC (−)/5-FC (+)/Dox (+), only U87-ffLuc transplanted
Method: First, 1×10^5 cells/2 μl U87-ffLuc and 5×10^5 cells/2 μl TSCs (3) (Tet-induced yCD-UPRT was introduced into iPS cells with the lentiviral vector) were mixed and stereotactically transplanted to the right striate body (2 mm away from the anterior fontanel to the right and 3 mm deep from the brain surface) of each T cell-deficient mouse (female BALB/c nude mouse, 20 g, 6 w) subjected to general anesthesia. Then, 500 μl of 5-FC (10 mg/ml) was intraperitoneally administered once per day for 2 weeks from the next day (treated group 1: TSC (+)/5-FC (+)/Dox (+), n=7). Next, 500 μl of 1 M PBS was administered to a control group 1 for 2 weeks in the same way (control group 1: TSC (+)/[…], n=9). A group to which only U87-ffLuc was transplanted was also generated as another control group, and 500 μl of 5-FC (10 mg/ml) was intraperitoneally administered to this once per day for 2 weeks (control group 2: TSC (−)/5-FC (+)/Dox (+), n=4). Feed containing 200 mg/kg of Dox was orally ingested. A method for evaluating tumors, the analysis of survival curves and the like were all performed in the same way as the above. […]
Survival analysis was performed, while the luminescence imaging analysis (IVIS) of the tumors was performed chronologically. […]

[5] = test system: NS/PCs expressing yCD-UPRT (TSCs (1), lentiviral vector); test: Cell death induction by 5-FC added to the medium; type: cell-based, human; conditions: 1 μg/ml 5-FC added to the medium
Description: Secondary to quaternary NS/PCs differentiation-induced from the human iPS cells were collected by a centrifuge, disassembled into single cells using TrypLE Select, suspended in NS medium, inoculated into a low adhesive flask at a concentration of 1×10^5 cells/ml, infected with a CSIV-EF-yCD-UPRT-IRES2-hKO1 lentiviral vector at an MOI (multiplicity of infection) of 1 to 2 and cultured for 7 days with the medium replaced every 3 to 4 days. The obtained NS/PCs were infected with the CSIV-EF-yCD-UPRT-IRES2-hKO1 lentiviral vector at an MOI of 1 to 2 in the same way again to prepare therapeutic stem cells (TSCs (1)), that is, NS/PCs expressing yCD-UPRT. It was confirmed that the cell death of the NS/PCs expressing yCD-UPRT was induced by adding 1 μg/ml 5-FC (fluorocytosine) to the medium.

[6] = test system: NS/PCs expressing yCD-UPRT (TSCs (2), GAPDH gene region, CRISPR/Cas9); test: Cell death induction by 5-FC added to the medium; type: cell-based, human; conditions: 1 μg/ml 5-FC added to the medium
Method: Differentiation induction from iPS cells in which yCD-UPRT was incorporated into the GAPDH gene region to NS/PCs was performed to obtain secondary to quinary NS/PCs (TSCs (2)). Culture was performed with 2 μg/ml blasticidin S always added to the medium. It was confirmed that the cell death of the NS/PCs expressing yCD-UPRT was induced by adding 1 μg/ml 5-FC to the medium.

[7] = test system: Tet-induced iPS cells expressing yCD-UPRT; test: Cell death induction by Dox and 5-FC added to the medium; type: cell-based, human; conditions: 1 μg/ml doxycycline (Dox) and 1 μg/ml 5-FC added to the medium
Method: Human iPS cells were infected with the CSIV-yCD-UPRT-TRE-EF-KT lentiviral vector at an MOI of around 15 and cultured, the clones were then sorted with a cell sorter to obtain an iPS cell line expressing hKO1 steadily and highly. It was confirmed that the cell death of the Tet-induced iPS cells expressing yCD-UPRT was induced by adding 1 μg/ml doxycycline (Dox) and 1 μg/ml 5-FC to the medium.

[8] = test system: Tet-induced NS/PCs expressing yCD-UPRT; test: as above; type: cell-based, human; conditions: 1 μg/ml Dox and 1 μg/ml 5-FC added to the medium
Method: Differentiation induction from the Tet-induced iPS cells expressing yCD-UPRT to NS/PCs was performed to obtain secondary and tertiary Tet-induced NS/PCs expressing yCD-UPRT.

SMILES: Nc1nc(=O)[nH]cc1F [5-FC, 5-fluorocytosine]
- average survival period (human glioma cells (U87) [1]): 21 days
- average survival period (human glioma cells (U87) [2]): 21 days
- average survival period (human glioma cells (U87) [3]): 21 days
- average survival period (human glioma cells (U87) [4]): 19 days
- cell death [5]: induced
- cell death [6]: induced
- cell death [7]: induced
- cell death [8]: induced
